Laboratory results reported in patent US20260169011A1, “METHODS AND COMPOSITIONS FOR PROVIDING CUSTOMIZED NUTRITIONAL SUPPLEMENTS” (Vibrant Holdings LLC, priority 2023, published 2026).
Like-named read-outs stand apart in the source and are kept apart here. Each block holds one molecule with its values, some of them ahead of it.

Assays:
[1] = Zone Approach: nutrient zone (Zone 1-5), target nutrient zone and follow-up zone; assay type: in vivo, human; settings: Zone Approach, CB followed for three months; for change of nutrient level at follow-up testing / nutrient zone at follow-up testing: Example 5: person
From the text: The second exemplary approach includes determining nutrient zones, and thus is referred to as the “Zone Approach.” According to some embodiments, the nutrient reference range for individuals can be divided into a number of zones, each indicating a nutrient wellness level. […] In some embodiments, for a given nutrient, each zone is associated with a specific multiplication factor, which can be used to determine the appropriate dosage for the CB. A few exemplary methods following this Zone Approach are further described hereinafter. […] Based on the assessment results, the current zone for each nutrient is determined at step 420a. In some embodiments, the genetic predispositions and cellular levels may influence the determination of the overall zone for a nutrient. […] This adjustment accounts for the impact of genetic polymorphisms and suboptimal cellular levels, each reducing the nutrient's zone by one or more zones. Therefore, this approach takes one or more of cellular and serum nutrient levels, along with their nutrient genetic profile into consideration to determine a given nutrient's overall zone. In the next, the Target Nutrient Zone (TNZ) to which the individual's each nutrient level is to be optimized is determined at step 430. […] In some embodiments, the determined TNZ is used to determine the multiplication factor used to adjust the starting dosage at step 440a, resulting in the CB dosage for each nutrient. In various embodiments, the multiplication factor is a fixed constant value, previously determined for a nutrient when moving from a first zone to a second zone. […] At step 450a, the CB with the determined nutrient dosages is administered to the individual for a predefined period. In some embodiments, a follow-up test is periodically conducted at step 460, to monitor the progress towards the target nutrient levels during the predefined period, for example, to check whether a target zone is reached or not for a given nutrient. In some embodiments, based on the results from the follow-up tests, it is further determined whether the dosage of the CB for a nutrient requires adjustment. If the adjustment is necessary, appropriate modification is made to the CB, for example, by increasing the TNZ to increase the nutrient levels. The modified CB is administered to the individual, and a reassessment is conducted again. In some embodiments, the personalized dosage of the nutritional supplement in the CB is modified as above after the at least one, two, three, four, five, six, seven, eight, nine, ten, or more repeats.

[2] = NutriPro test: serum, RBC and WBC nutrient values before and after ATB / customized blend; assay type: in vivo, human
From the text: The method for providing a nutritional supplement for a subject as disclosed herein is based on a comprehensive panel that assesses intracellular and extracellular levels of at least or up to 41 nutrients. […] Blood analysis using the method disclosed herein tests for nutrient levels in serum, red blood cells (RBCs), and white blood cells (WBCs). Additional genetic testing can assess patients' predispositions toward nutrient deficiencies. Based on the blood and genetic analysis results, a subsequent supplementation diet comprising supplements and food sources can be designed and implemented. The subject can be a human subject.
In some embodiments, the detection method is mass spectrometry.
The ‘NutriPro’ test is used to assess serum (extracellular), RBC, and WBC (intracellular) nutrient values along with genetic testing for any predispositions with could be affecting nutrient values in the body. If required, additional tests such as the gut zoomer, cardiovascular health, thyroid test, kidney function test, liver function test, etc, are carried out. FIG. 1 provides a schematic diagram of the process of the NutriPro test from the individual subject to the creation of customized nutritional blends.
The ATB is given to the individual for nutritional supplementation, and blood testing for nutrients in serum, RBC, and WBC is carried out after 3 or 6 months.
The assessed change is called the VAF.
After testing, the individual takes the ATB or the customized blend for the amount of time indicated.

[3] = Extracellular (serum) nutrient levels by mass spectrometry (LC-MS, GC-MS, ICP-MS); settings: Level: Serum, person; for Actual Nutrient Value (ANV): before customized blend; for Follow-up Nutrient Level: after customized blend
From the text: (§1) In some embodiments, the detection method assesses nutrients both in extracellular plasma and intracellular in RBC and WBC. In some embodiments, the detection method is mass spectroscopy-based. The extracellular and intracellular nutrient levels provide a comprehensive analysis of a subject's nutrient status, reflecting not only the intake levels but also the absorption levels into the cells.
(§2) In some aspects, the extracellular nutrient levels provide a snapshot of the status of nutrient baseline levels at a given time. It is a reflection of a person's diet over a narrow period of time. In contrast, the intracellular levels of nutrients provide information on the absorbed levels of nutrients, thus accounting for factors such as aging, lifestyle, chronic illness, medication, etc. that could interfere with absorption and can change the functional nutritional levels.
(§3) In some embodiments, the detection method is mass spectrometry. In some embodiments, the detection method is Liquid chromatography-mass spectrometry (LC-MS), Gas chromatography-mass spectrometry (GC-MS), or Inductively coupled plasma-mass-spectrometry (ICP-MS). In some embodiments, the detection method is Liquid chromatography-mass spectrometry (LC-MS). In some embodiments, the detection method is Gas chromatography-mass spectrometry (GC-MS). In some embodiments, the detection method is Inductively coupled plasma-mass-spectrometry (ICP-MS).
(§4) In some embodiments, the method provided herein evaluates nutrient levels, both in extracellular serum and inside (intracellular) red blood cells (RBC) and/or white blood cells (WBC). The extracellular nutrient levels provide a snapshot of the status of nutrient baseline levels at a given time. These extracellular nutrient levels are a reflection of a person's diet over a narrow period of time. In contrast, RBCs have a normal lifespan of 120 days, and thus intracellular assessments for nutrients in RBCs can provide information on nutrients over longer periods. Additionally, the intracellular levels of nutrients provide information on the absorbed levels of nutrients, thus accounting for factors such as, but not limited to, aging, lifestyle, chronic illness, and medication, that can interfere with absorption and can change the functional nutritional levels. Moreover, actual nutrient utilization occurs inside the cell owing to cellular metabolic processes. At times, nutrients could be present in serum, but poor cellular uptake may result in cells being devoid of these nutrients, thus giving rise to nutrient deficiencies owing to affected cellular activities. […] As a result, it is important to assess nutrients intracellularly in addition to extracellularly. Thus, the intracellular assessment provides information on cellular uptake and utilization of nutrients at the most fundamental level, enabling understanding of the root cause of nutrient deficiencies.
(§5) The subject individual fills out the health questionnaire (PHQ) which helps establishes factors such as symptoms, complications, comorbidities, and ongoing medications. The subject's blood is drawn and the extracellular serum and intracellular blood cells are tested for nutritional deficiencies via mass spectroscopy (e.g., Liquid chromatography-mass spectrometry (LC-MS), Gas chromatography-mass spectrometry (GC-MS), or Inductively coupled plasma-mass-spectrometry (ICP-MS)).

[4] = Vibrant Absorption Factor (VAF): difference of post- and pre-supplementation nutrient values divided by ATB dosage
From the text: (§6) Improvement in nutrition can be determined by comparing the nutrient values in serum, RBC, and WBCs post-nutritional supplementation to the nutrient values in serum, RBC, and WBCs pre-nutritional supplementation. Based on the improvement, the change in the nutrient levels can be attributed to the per milligram dosage of the supplemented nutrients. The assessed nutritional change is the “Vibrant Absorption factor (VAF (see Equation (1) below). The VAF can be used to determine the subject's utilization of the supplemented nutrients, as determined by the difference in extracellular and intracellular nutrient values before and after supplementation. Based on the subject's utility or absorption of the nutrients, the dosage amount of the nutrient needed to be supplemented or increased to effect change of the subject's nutrient values into the optimum nutrient zone can be assessed. In various embodiments, the VAF is determined by administering a pre-determined formulation, referred to herein as the Absorption Testing Blend.
(§7) Next, the ATB is administered to the individual for a predefined period at step 320a, after which nutrient levels and the genetic nutrient profile are re-evaluated, to obtain the post-supplementation biomarker values at step 330.
(§8) This includes determining the VAF based on the difference between post- and pre-supplementation biomarker values, which is divided by the ATB dosage.
(§9) The assessed change is called the VAF. The VAF is used to understand how the individual's body is utilizing these nutrients, depending on the difference in extracellular and intracellular nutrient values before and after supplementation. Based on the body's utility or absorption of the nutrients, the amount of nutrients needed to be supplemented to alter the individual's nutrient values into the optimum nutrient zone is understood. The VAF calculations help in determining the appropriate dosages of nutrients required in the ‘customized blend.’

clinical = settings: female, human, in vivo
From the text: as §1, §2, §3, §4, §5

[5] = cited from earlier work
[6] = human, in vivo
From the text: as §6, §7, §8, §9

[7] = in vivo
From the text: as §1, §2, §3, §4, §5

[8] = person two, serum, after customized blend
[9] = person one, cells, after customized blend
[10] = person two, cells, after customized blend
[11] = person one, serum, after customized blend

Follow-up Biomarker level ([2]; male, human, in vivo): 697 nmol/mL
Post-test biomarker level ([2]; male, human, in vivo): 312 nmol/mL
Pre-test biomarker level ([2]; person one, serum, before ATB): 295.3 nmol/mL
Follow-up Nutrient Level ([2]; person three, serum, after customized blend): 677 nmol/mL
Actual Nutrient Value (ANV) ([2]; person three, serum, before customized blend): 290 nmol/mL
Actual Nutrient Value (ANV) [3]: 302 nmol/mL
VAF ([4]; person one, serum): 3.34
concentration at 3 months (clinical): 371 µM
Molecule: NC(=O)CC[C@H](N)C(=O)O [L-glutamine, L-Glutamine]
change of nutrient level at follow-up testing [1]: marginal increase
nutrient zone at follow-up testing [1]: Zone 2
UTL ([5]; Table 18, person one): 14000 mg/day
UTL ([5]; Table 20, person three): 14000 mg/day
UTL ([5]; upper tolerable limit): 14000 mg/day

Molecule: CCCCC/C=C\C/C=C\CCCCCCCC(=O)O [LA, linoleic acid]
nutrient levels reaching their TNZ at follow-up testing ([1]; Example 4: person three bodybuilder, named nutrients are the exceptions that did not reach the TNZ): supposed to reach the higher Zone 5

Molecule: [Se] [Selenium]
Follow-up Biomarker level ([2]; female, human, in vivo): 267 ng/mL
Post-test biomarker level ([2]; female, human, in vivo): 122 ng/mL
Pre-test biomarker level ([2]; female, human, in vivo): 105 ng/mL
Actual Nutrient Value (ANV) ([2]; male, human, in vivo): 190 ng/mL
Follow-up Biomarker level ([2]; male, human, in vivo): 259 ng/mL
Follow-up Nutrient Level ([2]; male, human, in vivo): 267 ng/mL
Post-test biomarker level ([2]; male, human, in vivo): 167 ng/mL
Pre-test biomarker level ([2]; male, human, in vivo): 140 ng/mL
VAF ([6]; female): 2.267
VAF ([6]; male): 3.6

Molecule: CC(C)(CO)[C@@H](O)C(=O)NCCC(=O)O [Vitamin B5]
Post-test biomarker level ([2]; person two, serum, after ATB): 23.5 ng/mL
Follow-up Biomarker level [2, 8]: 311 ng/mL
Pre-test biomarker level ([2]; person two, serum, before ATB): 14.4 ng/mL
Follow-up Nutrient Level [3]: 14.4 µg/L
Actual Nutrient Value (ANV) [3]: 5.4 µg/L
VAF ([4]; person two, serum): 18.2

Molecule: O=C1O[C@H]([C@@H](O)CO)C(O)=C1O [Vitamin C]
Post-test biomarker level ([2]; person one, cells, after ATB): 1.1 pg/MM WBC
Follow-up Biomarker level [2, 9]: 9.2 pg/MM WBC
Pre-test biomarker level ([2]; person one, cells, before ATB): 0.05 pg/MM WBC
Post-test biomarker level ([2]; person two, cells, after ATB): 1.1 pg/MM WBC
Follow-up Biomarker level [2, 10]: 8.3 pg/MM WBC
Pre-test biomarker level ([2]; person two, cells, before ATB): 0.1 pg/MM WBC
Follow-up Nutrient Level [3]: 2300 µg/L
Actual Nutrient Value (ANV) [3]: 1000 µg/L
VAF ([4]; person one, cells): 0.07
VAF ([4]; person two, cells): 0.06667

Molecule: C=C1CC[C@H](O)C/C1=C/C=C1\CCC[C@]2(C)[C@@H]([C@H](C)CCCC(C)C)CC[C@@H]12 [Vitamin D3]
Post-test biomarker level ([2]; person one, cells, after ATB): 18.9 pg/MM WBC
Follow-up Biomarker level [2, 9]: 212 pg/MM WBC
Pre-test biomarker level ([2]; person one, cells, before ATB): 12.2 pg/MM WBC
Post-test biomarker level ([2]; person one, serum, after ATB): 2.3 ng/mL
Follow-up Biomarker level [2, 11]: 8.7 ng/mL
Pre-test biomarker level ([2]; person one, serum, before ATB): 0.5 ng/mL
Post-test biomarker level ([2]; person two, cells, after ATB): 18.9 pg/MM WBC
Follow-up Biomarker level [2, 10]: 221 pg/MM WBC
Pre-test biomarker level ([2]; person two, cells, before ATB): 12.2 pg/MM WBC
Follow-up Nutrient Level [3]: 0.72 µg/L
Actual Nutrient Value (ANV) [3]: 0.1 µg/L
VAF ([4]; person one, cells): 0.067
VAF ([4]; person one, serum): 0.018
VAF ([4]; person two, cells): 0.067

Molecule: Cc1ncc(COP(=O)(O)O)c(C=O)c1O [vitamin B6, Pyridoxal 5-Phosphate]
change of nutrient level at follow-up testing [1]: moderately increased
nutrient zone at follow-up testing [1]: Zone 2
Actual Nutrient Value (ANV) ([2]; in vivo): 130 ng/mL
Follow-up Nutrient Level ([2]; in vivo): 401 ng/mL
Actual Nutrient Value (ANV) [7]: 0.5 ng/mL
Follow-up Nutrient Level [7]: 0.9 ng/mL

Post-test biomarker level ([2]; person one, serum, after ATB): 18200 ng/mL
Follow-up Biomarker level [2, 11]: 36500 ng/mL
Pre-test biomarker level ([2]; person one, serum, before ATB): 5500 ng/mL
Post-test biomarker level ([2]; person two, serum, after ATB): 17800 ng/mL
Follow-up Biomarker level [2, 8]: 35400 ng/mL
Pre-test biomarker level ([2]; person two, serum, before ATB): 3200 ng/mL
Follow-up Nutrient Level [3]: 5400 µg/L
Actual Nutrient Value (ANV) [3]: 4200 µg/L
VAF ([4]; person one, serum): 4.233
VAF ([4]; person two, serum): 4.867
Molecule: Vitamin E
